Measured values taken from patent publication US9260439B2, “Dihydropyrrolopyrimidine derivatives” (PFIZER INC., priority 2014, dated 2016).

These molecules were tested against truncated PI3Kα (p110α/iSH2 p85α) (Homo sapiens (Human), UniProt P42336) (assay: PI3KA_Act fluorescence polarization kinase assay (Ki)). Conditions: 1 mM ATP.
Format: biochemical
Summary of the method: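 Ki values result from fitting fluorescence polarization signals to the Morrison equation for tight-binding competitive inhibitors. The detector was GST-Grp1 PH domain with TAMRA-PIP3, read after a 30 min room-temperature reaction of 0.5 nM truncated PI3Kα and 30 μM PIP2 at pH 7.4 in HEPES/NaCl/MgCl2/DTT/CHAPS buffer. Compounds were tested as 12-point 3-fold dilutions from 3 μM.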

truncated PI3Kα (p110α/iSH2 p85α), sequence (P42336 whole entry, the tested form may be a part): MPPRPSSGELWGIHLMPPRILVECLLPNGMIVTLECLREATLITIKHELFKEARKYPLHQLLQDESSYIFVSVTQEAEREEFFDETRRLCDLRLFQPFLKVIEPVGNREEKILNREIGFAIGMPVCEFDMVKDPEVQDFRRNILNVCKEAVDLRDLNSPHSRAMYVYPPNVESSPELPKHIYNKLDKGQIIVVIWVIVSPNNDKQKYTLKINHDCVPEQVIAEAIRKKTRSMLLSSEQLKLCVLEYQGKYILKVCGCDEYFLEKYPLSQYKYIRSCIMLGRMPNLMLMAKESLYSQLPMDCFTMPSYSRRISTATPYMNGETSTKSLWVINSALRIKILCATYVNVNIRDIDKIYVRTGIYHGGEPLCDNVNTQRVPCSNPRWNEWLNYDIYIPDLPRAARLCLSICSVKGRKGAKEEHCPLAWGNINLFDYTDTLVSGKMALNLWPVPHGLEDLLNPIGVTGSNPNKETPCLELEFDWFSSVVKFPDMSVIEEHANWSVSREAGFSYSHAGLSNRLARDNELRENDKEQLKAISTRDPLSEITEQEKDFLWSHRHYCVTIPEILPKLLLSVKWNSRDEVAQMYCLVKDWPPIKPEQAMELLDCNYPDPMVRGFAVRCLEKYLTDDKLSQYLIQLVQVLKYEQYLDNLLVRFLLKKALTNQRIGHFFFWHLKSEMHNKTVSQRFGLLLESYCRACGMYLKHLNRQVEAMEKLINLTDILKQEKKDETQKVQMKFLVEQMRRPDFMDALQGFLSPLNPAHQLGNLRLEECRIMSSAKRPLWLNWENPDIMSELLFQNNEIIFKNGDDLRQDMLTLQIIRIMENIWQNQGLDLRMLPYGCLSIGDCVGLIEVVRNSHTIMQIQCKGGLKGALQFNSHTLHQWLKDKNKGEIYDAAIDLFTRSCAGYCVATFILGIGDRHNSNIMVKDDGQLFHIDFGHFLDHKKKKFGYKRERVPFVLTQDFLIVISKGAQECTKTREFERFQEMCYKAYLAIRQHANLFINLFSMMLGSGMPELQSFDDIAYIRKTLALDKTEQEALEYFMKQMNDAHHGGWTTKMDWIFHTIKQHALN

Structure (SMILES)	PI3KA_Act Ki
Cl.Nc1ncc(-c2nc(N3CCOCC3)nc3c2CCN3[C@H]2CNC[C@H]2F)cn1 [Example 255, 5-{7-[(3S,4R)-4-fluoropyrrolidin-3-yl]-2-(morpholin-4-yl)-6,7-dihydro-5H-pyrrolo[2,3-d]pyrimidin-4-yl}pyrimidin-2-amine hydrochloride]	1.168 nM
CC[C@@]1(N2CCc3c(-c4cnc(N)nc4)nc(N4CCOCC4)nc32)CCNC1.Cl [Example 256, 5-{7-[(3R)-3-ethylpyrrolidin-3-yl]-2-(morpholin-4-yl)-6,7-dihydro-5H-pyrrolo[2,3-d]pyrimidin-4-yl}pyrimidin-2-amine hydrochloride]	1.131 nM
CC[C@]1(N2CCc3c(-c4cnc(N)nc4)nc(N4CCOCC4)nc32)CCNC1.Cl [Example 257, 5-{7-[(3S)-3-ethylpyrrolidin-3-yl)-2-(morpholin-4-yl)-6,7-dihydro-5H-pyrrolo[2,3-d]pyrimidin-4-yl}pyrimidin-2-amine hydrochloride]	0.955 nM
C[C@]1(N2CCc3c(-c4cnc(N)nc4)nc(N4CCOCC4)nc32)CCNC1=O [Example 258, (3S)-3-[4-(2-aminopyrimidin-5-yl)-2-(morpholin-4-yl)-5,6-dihydro-7H-pyrrolo[2,3-d]pyrimidin-7-yl]-3-methylpyrrolidin-2-one]	31.787 nM
CC(=O)N1CC[C@@](C)(N2CCc3c(-c4cnc(N)nc4)nc(N4CCOCC4)nc32)C1 [Example 259, 1-{(3R)-3-[4-(2-aminopyrimidin-5-yl)-2-(morpholin-4-yl)-5,6-dihydro-7H-pyrrolo[2,3-d]pyrimidin-7-yl]-3-methylpyrrolidin-1-yl}ethanone]	0.139 nM
CCC(=O)N1CC[C@](C)(N2CCc3c(-c4cnc(N)nc4)nc(N4CCOCC4)nc32)C1 [Example 260, 1-{(3S)-3-[4-(2-aminopyrimidin-5-yl)-2-(morpholin-4-yl)-5,6-dihydro-7H-pyrrolo[2,3-d]pyrimidin-7-yl]-3-methylpyrrolidin-1-yl}propan-1-one]	0.030 nM
CCC(=O)N1CC[C@@](C)(N2CCc3c(-c4cnc(N)nc4)nc(N4CCOCC4)nc32)C1 [Example 261, 1-{(3R)-3-[4-(2-aminopyrimidin-5-yl)-2-(morpholin-4-yl)-5,6-dihydro-7H-pyrrolo[2,3-d]pyrimidin-7-yl]-3-methylpyrrolidin-1-yl}propan-1-one]	0.143 nM
CC(C)C(=O)N1CC[C@](C)(N2CCc3c(-c4cnc(N)nc4)nc(N4CCOCC4)nc32)C1 [Example 262, 1-{(3S)-3-[4-(2-aminopyrimidin-5-yl)-2-(morpholin-4-yl)-5,6-dihydro-7H-pyrrolo[2,3-d]pyrimidin-7-yl]-3-methylpyrrolidin-1-yl}-2-methylpropan-1-one]	<0.018 nM
CC(C)C(=O)N1CC[C@@](C)(N2CCc3c(-c4cnc(N)nc4)nc(N4CCOCC4)nc32)C1 [Example 263, 1-{(3R)-3-[4-(2-aminopyrimidin-5-yl)-2-(morpholin-4-yl)-5,6-dihydro-7H-pyrrolo[2,3-d]pyrimidin-7-yl]-3-methylpyrrolidin-1-yl}-2-methylpropan-1-one]	0.122 nM
CC(C)(C)C(=O)N1CC[C@](C)(N2CCc3c(-c4cnc(N)nc4)nc(N4CCOCC4)nc32)C1 [Example 264, 1-{(3S)-3-[4-(2-aminopyrimidin-5-yl)-2-(morpholin-4-yl)-5,6-dihydro-7H-pyrrolo[2,3-d]pyrimidin-7-yl]-3-methylpyrrolidin-1-yl}-2,2-dimethylpropan-1-one]	<0.018 nM
C[C@]1(N2CCc3c(-c4cnc(N)nc4)nc(N4CCOCC4)nc32)CCN(C(=O)CC#N)C1 [Example 265, 3-{(3S)-3-[4-(2-aminopyrimidin-5-yl)-2-(morpholin-4-yl)-5,6-dihydro-7H-pyrrolo[2,3-d]pyrimidin-7-yl]-3-methylpyrrolidin-1-yl}-3-oxopropanenitrile]	0.048 nM
